# Laboratory results: patent US20240076347A1, “METHODS FOR PREVENTING FUNGAL INFECTIONS” (Cidara Therapeutics, Inc., priority 2016, published 2024)
# “And” between values parts separate entries of the source, which are not always exact repeats. Equal entries are not always repeated. Numbered stars: 1 amine (or outer) side, 2 acyl side, 3 side chain; on linkers, the order of the positions; unused ones are H or OH. Bridge positions count the residues as written; N and C are the ends. Square brackets hold non-standard residues; d marks the D form. Peptide text beside a SMILES is read from it. * marks the point of attachment. ξ: configuration not given here. Orn(4R-OH,5R-OCH2CH2NMe3+) = C[N+](C)(C)CCO[C@@H](N[*:3])[C@H](O)C[C@H](N[*:1])C(=O)[*:2]; hTyr(3S-OH,4S-OH,3'-OSO3H) = N[C@H](C(=O)O)[C@H](O)[C@@H](O)c1ccc(O)c(OS(=O)(=O)O)c1; pTerphenylCO(4''-OnC5H11) = CCCCCOc1ccc(-c2ccc(-c3ccc(C(=O)*)cc3)cc2)cc1; Orn(4R-OH,5R-OH) = O=C([C@H](C[C@@H](O)[C@@H](O)N[*:3])N[*:1])[*:2]; hTyr(3S-OH,4S-OH) = N[C@H](C(=O)O)[C@H](O)[C@@H](O)c1ccc(O)cc1; Pro(3S-OH,4S-Me) = C[C@H]1CN[C@H](C(=O)O)[C@H]1O; X2 = CCCCCOc1ccc(-c2cc(-c3ccc(C(=O)*)cc3)no2)cc1; Gln(3R-OH) = NC(=O)C[C@@H](O)[C@H](N)C(=O)O; X1 = C[C@H]1CN([*:1])C(C(=O)[*:2])C1O; Hyp = O=C(O)[C@@H]1C[C@@H](O)CN1; ξT = CC(O)C(N)C(=O)O
# Assays:
# Candida albicans SC5314 = test: Immunocompetent DBA/2 mouse model of disseminated candidiasis, treatment, kidney CFU; assay type: in vivo; settings: 24 hr
# Procedure: The efficacy of CD101 SC was studied in an immunocompetent DBA/2 mouse model of disseminated candidiasis. Mice (5/grp) were challenged with Candida albicans SC5314 (ATCC: MYA-2876, fluconazole-sensitive human clinical isolate shown to be pathogenic in mice) via IV injection (100 μL, 5.0 log CFU/mouse) and treated with CD101 SC (1, 3 or 10 mg/kg). Micafungin via IP administration was tested as a positive control at the same 3 doses. At 24 hours following challenge, kidneys were harvested and processed for CFU enumeration. All comparisons were made between the treatment and time-matched vehicle groups.
# [1] = Pharmacokinetic profile in mice after subcutaneous dose; assay type: in vivo; settings: mouse, plasma, 10 mg/kg SC
# human plasma proteins = test: Plasma protein binding by ultracentrifugation; assay type: in vitro ADME
# Procedure: Concentrations in plasma ranging from 7 to 60 μg/mL were tested and resulting samples were analyzed by LC-MS/MS.
# [2] = system: Aspergillus fumigatus strain AF293; test: Murine model of pulmonary aspergillosis (Example 16), survival and lung burden; assay type: in vivo; settings: for Mean Survival / Median Survival / survival time post infection, range / mice that survived to the end of the study: Day −1; for mice that survived to the end of the study: 6 mice per group, 10 days; for Group Geometric mean / Log10 Group Geometric mean / Log10 reduction from vehicle control: terminal lung burden
# Procedure: Animal strain and housing. Mice used in these studies were supplied by Charles River (Margate UK) and were specific pathogen free. The strain of mice used was ICR (also known as CD1 Mice) which is a well characterized outbred murine strain. Male mice were 11-15 g on receipt and allowed to acclimatize for at least 7 days.
# Immunosuppression. Mice were immunosuppressed on Day −4 with 150 mg/kg cyclophosphamide administered intraperitoneally (IP), and on Day −1 with 150 mg/kg cyclophosphamide IP and 175 mg/kg cortisone acetate administered subcutaneously (SC). To prevent bacterial infection due to the immunosuppression mice were given once daily 50 mg/kg ceftazidime.
# Preparation of Organism and Infection. A. fumigatus strain AF293 inoculum was prepared from spore cultures grown on Sabouraud Dextrose agar (SAB) containing 50 μg/mL chloramphenicol (SABC) in vented tissue culture flasks. Following incubation for 7-10 days at 30° C., spore cultures were washed in sterile phosphate buffered saline (PBS) containing 0.05% Tween 80. Spore count was determined using a haemocytometer and spores were diluted in PBS to ˜6.9×10^6 CFU/mL. Inoculum concentration was confirmed by quantitative culture onto SABC agar.
# Neutropenic mice lungs were infected with 0.04 mL (0.02 mL/nare) of ˜4.17×10^6 CFU/mL (˜1.67×10^5 CFU/mouse) of A. fumigatus AF293 by intranasal (IN) instillation under temporary 2.5% isoflurane induced anesthesia.
# Preparation of Test Articles. Micafungin (Mycamine, Astellas) was provided as a 50 mg vial (Lot 02323002, expiry 08/2017) and was prepared as per manufacturer's instructions by adding 5 mL saline for injection (SFI) directly into the vial to make up a 10 mg/mL stock solution. This solution was then diluted further in SFI to a working concentration of 0.5 mg/mL. […] It was prepared fresh once and stored at 4° C. until required.
# Posaconazole (Noxafil 40 mg/mL oral suspension, Merck Sharp & Dohme Limited) was provided as a 40 mg/mL oral suspension (Lot N00801, expiry 04/2019). This suspension was then diluted further in water for infection (WFI) to a working concentration of 0.2 and 1 mg/mL. The suspension was administered orally (PO) at 10 mL/kg for 2 and 10 mg/kg doses respectively, was prepared fresh once and stored at 4° C. until required.
# Test article CD101 stock was prepared at 6 mg/mL in 10% DMSO/1% Tween 20 diluent. A clear non particulate solution was obtained following gentle mixing. […] All doses were administered IP at 10 mL/kg. The study doses were kept at 4° C. until required.
# Treatment. For this study, treatments were initiated on Day 1 pre infection according to treatment groups outlined in Table 22. A total of 36 mice (6/treatment group) were used in the study.
# Endpoints. The primary endpoint for this study was survival within agreed ethical limits (>20% weight loss, severe hypothermia <34° C., inability to reach food or drink, severe hunching). Mice were monitored by daily weight measurements with observations as frequently as clinical condition required.
# Mice presenting with severe clinical deterioration were humanely euthanized using an overdose of pentobarbitone administered by IP injection following clinical assessment and the time of death was recorded. Animal carcasses were stored at −20° C. before quantitative assessment of burden.
# Ten days post infection all surviving animals were weighed and had their clinical condition assessed prior to being euthanized. Final survival numbers were recorded and analysed as described below and carcasses frozen at −20° C. prior to further processing.
# Lung burden. A secondary endpoint for the study was terminal lung tissue burden. Immediately following confirmation of death, carcasses were frozen at −20° C. prior to tissue dissection and processing. The frozen carcasses were thawed at room temperature, the lungs removed and placed into pre-weighed bead-beating tubes containing 2 mL of PBS and subjected to mechanical disruption. […]
# Pneumocystis murina = Pneumocystis murina mouse prophylaxis study, lung nuclei and asci counts; assay type: in vivo
# Procedure: C3H/HeN mice (Charles River) were infected with P. murina by intranasal inoculation of P. murina organisms at 2×10^6/50 μl from a liquid nitrogen repository. Prior to inoculation, the P. murina were pre-incubated overnight in RPMI 1640 medium supplemented with calf serum and antibiotics to eliminate any bacterial contamination. The immune systems of the mice were suppressed by the addition of dexamethasone at 4 μ[…] to acidified drinking water (sulfuric acid at 1 ml/liter). Acidification is used to prevent secondary microbial infections. The mice were divided into a negative control group (control steroid-C/S), positive control group (trimethoprim/sulfamethoxazole-TMP/SMX) and treatment groups. Drugs to be tested were administered intraperitoneally (IP) on a mg/kg/d basis; dose, route, and frequency of administration varied depending on the agent being tested. […] Immune suppression and treatment continued for the entire 6 week study. At that time, the mice were euthanized by CO2 and lungs processed for analysis by homogenization. Slides were made from the lung homogenates at different dilutions and stained with Diff-Quik to quantify the trophic forms and cresyl echt violet to quantify the asci. Efficacy is based on the reduction of organism burden between the treatment groups and the negative control group was determined by microscopic evaluation. The nuclei and asci counts for each lung were log transformed and statistical analysis was determined by the analysis of variance (ANOVA); individual groups were compared by the Student-Newman-Keuls t test for multiple comparisons using GraphPad Prism.
smiles,measurement,setting,value
"CCCCCOc1ccc(-c2ccc(-c3ccc(C(=O)N[C@H]4C[C@@H](O)[C@@H](OCC[N+](C)(C)C)NC(=O)C5C(O)[C@@H](C)CN5C(=O)[C@H]([C@@H](C)O)NC(=O)[C@H]([C@H](O)[C@@H](O)c5ccc(O)cc5)NC(=O)[C@@H]5C[C@@H](O)CN5C(=O)C(C(C)O)NC4=O)cc3)cc2)cc1 (stereo partly drawn) [CD101] ({pTerphenylCO(4''-OnC5H11)}-[Orn(4R-OH,5R-OCH2CH2NMe3+)][ξT][Hyp][hTyr(3S-OH,4S-OH)]T[X1]; lactam 1-C)",animals completely cleared of CFU burden,Candida albicans SC5314; 1 mg/kg SC,4 of 5
same,kidney CFU,"Candida albicans SC5314; 1, 3 and 10 mg/kg SC, vs vehicle",significant reduction in kidney CFU
same,kidney CFU,Candida albicans SC5314; 3 or 10 mg/kg SC,complete CFU clearance
same,half-life,[1],~25 h
same,bioavailability,[1]; read-out: absolute bioavailability,~50%
same,"percent of bound CD101, mean","human plasma proteins; human plasma, 7 to 60 μg/mL",97.4%
same,higher free fraction in human vs mouse plasma,human plasma proteins; human vs mouse plasma,~3 ×
same,Mean Survival,[2]; 20 mg/kg IP once,130.4 h
same,Median Survival,[2]; 20 mg/kg IP once,74.7 h
same,"survival time post infection, range",[2]; 20 mg/kg IP once,70 to 240 h
same,mice that survived to the end of the study,[2]; 20 mg/kg IP once,Two
same,Mean Survival,[2]; 60 mg/kg IP once,122.7 h
same,Median Survival,[2]; 60 mg/kg IP once,88.7 h
same,"survival time post infection, range",[2]; 60 mg/kg IP once,73-240
same,mice that survived to the end of the study,[2]; 60 mg/kg IP once,A single mouse
same,survival vs vehicle (conclusion),[2]; 20 and 60 mg/kg once one day pre-infection,"slight increase in survival, which was statistically longer than the vehicle treatment"
same,Group Geometric mean,[2]; 20 mg/kg IP Day −1,4.37 × 10^3 CFU/g
same,Log10 Group Geometric mean,[2]; 20 mg/kg IP Day −1,3.64 CFU/g
same,Log10 reduction from vehicle control,[2]; 20 mg/kg IP Day −1,0.53 CFU/g
same,Group Geometric mean,[2]; 60 mg/kg IP Day −1,1.38 × 10^4 CFU/g
same,Log10 Group Geometric mean,[2]; 60 mg/kg IP Day −1,4.14 CFU/g
same,Log10 reduction from vehicle control,[2]; 60 mg/kg IP Day −1,0.03 CFU/g
same,asci levels (lung),Pneumocystis murina; 5 CD101 treatment groups vs positive control TMP/SMX,no difference in efficacy
same,asci levels (lung),"Pneumocystis murina; IP, all CD101 treatment groups, 6 weeks, vs negative control",statistically significant reduction in asci levels
same,nuclei levels (lung),"Pneumocystis murina; IP, all dose levels except 0.2 mg/kg/1×/week, 6 weeks, vs negative control",statistically significant reduction in nuclei levels
same,human equivalent doses preventing Pneumocystis pneumonia in mice,Pneumocystis murina; mice,< 50 mg
same,nuclei levels (lung),"Pneumocystis murina; three of the CD101 treatment groups, 6 weeks",equally as efficacious as the positive control TMP/SMX
"CCCCCOc1ccc(-c2cc(-c3ccc(C(=O)N[C@H]4C[C@@H](O)[C@@H](O)NC(=O)[C@@H]5[C@@H](O)[C@@H](C)CN5C(=O)[C@H]([C@H](O)CC(N)=O)NC(=O)[C@H]([C@H](O)[C@@H](O)c5ccc(O)c(OS(=O)(=O)O)c5)NC(=O)[C@@H]5C[C@@H](O)CN5C(=O)[C@H]([C@@H](C)O)NC4=O)cc3)no2)cc1 [Micafungin, micafungin, reference compound] (X2-[Orn(4R-OH,5R-OH)]T[Hyp][hTyr(3S-OH,4S-OH,3'-OSO3H)][Gln(3R-OH)][Pro(3S-OH,4S-Me)]; lactam 1-C)",kidney CFU,Candida albicans SC5314; 10 mg/kg IP only,complete clearance
same,kidney CFU,"Candida albicans SC5314; 1, 3 and 10 mg/kg IP",good dose response in CFU reduction
same,Mean Survival,[2]; 5 mg/kg IP once,92 h and 92.0 h
same,Median Survival,[2]; 5 mg/kg IP once,80 h and 80.0 h
same,"survival time post infection, range",[2]; 5 mg/kg IP once,71 to 162 h
same,survival vs vehicle (conclusion),[2]; 5 mg/kg once one day pre-infection,did not show any improvement in survival
same,Group Geometric mean,[2]; 5 mg/kg IP Day −1,6.61 × 10^3 CFU/g
same,Log10 Group Geometric mean,[2]; 5 mg/kg IP Day −1,3.82 CFU/g
same,Log10 reduction from vehicle control,[2]; 5 mg/kg IP Day −1,0.35 CFU/g
